Structures are written as SMILES.

The values below come from patent EP0612321B1, “PYRIDO PYRIDAZINONE AND PYRIDAZINTHIONE COMPOUNDS WITH PDE IV INHIBITING ACTIVITY” (SYNTEX (U.S.A.) INC., priority 1991, dated 1993).

The target of series [1] is Human Lymphocyte PDE IV. The experiment in a line: Human Lymphocyte cAMP Phosphodiesterase Assay (inhibition of PDE IV). The format is biochemical. The conditions noted are these: Inhibition of Human Lymphocyte PDE IV (human B cell line 43D supernatant). As to the method:
Human B cell line (43D) was cultured at 37°C in 7% CO2 in RPMI 1640 with L-glutamine and 10% Nu-Serum. Prior to the assay ∼1.5x10^8 cells were centrifuged at 1000 rpm for 10 minutes in a table top clinical centrifuge. The pellet was resuspended in 2-3 ml of 45 mM Tris-HCl buffer, pH 7.4. The suspension was homogenized and centrifuged at 12,000 x g 4°C for 10 minutes. The supernatant was diluted to 28 ml with Tris-HCl buffer and used directly in the assay or stored at -20°C. The final concentration of DMSO in the PDE incubation medium was 1%. Nitraquazone was included in each assay (10 and 100µM) as a reference standard.
The phosphodiesterase incubation medium contained 10 mM Tris-HCl buffer, pH 7.7, 10 mM MgSO4, 0.1-1µM […] (0.2 µCi) in a total volume of 1.0 ml. Following addition of the enzyme, the contents were mixed and incubated for 10 min at 30°C. The reaction was terminated by immersing the tubes in a boiling-water bath for 90 sec. After the tubes were cooled in an ice-water bath, 0.1 ml (100µg) of 5'-nucleotidase from snake venom (Crotalus atrox, Sigma V-7000) was added to each tube. The contents were mixed and incubated for 30 min at 30°C. The nucleotidase reaction was terminated by immersing the tubes in a boiling water bath for 60 sec. […]

In series [2] the test system is plaque-forming cells (PFC). Put plainly: Hemolytic Plaque Forming Cell (PFC) Assay, immunosuppressive activity. The format is in vivo, C3H female mice. The settings on record: Mus musculus, 96 h; oral dosage form; mice sensitized with SRBC; spleens taken four days after SRBC inoculation; read-out: ED50 (Immune PFC). From the text: This procedure is a modification of "The agar plaque technique for recognizing antibody producing cells," a procedure initially described by Jerne, et al. [Cell-bound Antibodies, Amos and Kaprowski editors (Wistar Institute Press, Philadelphia, 1963) p. 109].
Groups of 5-6 adult C3H female mice were sensitized with 1.25 x 10^8 sheep red blood cells (SRBC) and simultaneously treated with an oral dosage form of the test material in an aqueous vehicle. Animals in a control group receive the same volume of vehicle. Four days after SRBC inoculation, spleens are dispersed in glass homogenizers. The number of nucleated cells (WBC) is determined and the spleen cell suspension is mixed with SRBC, guinea pig complement and agar solution at 0.5% concentration. Aliquots of the above mixture (0.1 ml) are dropped on four separate quadrants of a Petri dish and are covered with cover slips. After two hours incubation at 37°C, areas of hemolysis around plaque-forming cells (PFC) are counted with a dissecting microscope. Total WBC/spleen, PFC/spleen and PFC/10^6 WBC (PPM) are calculated for each mouse spleen. Geometric means of each treatment group are then compared with the vehicle-treated control group.

Series [3] relates to Human PBL. Put plainly: Mitogenic response of human peripheral blood lymphocytes to concanavalin A (3H-thymidine uptake). Type of series: cell-based. The settings on record: Lymphocyte, concanavalin A 2 µg/ml, 48 hours, read-out: % Suppression. The protocol: This procedure is a modification of a procedure initially described by Greaves, et al. ["Activation of human T and B lymphocytes by polyclonal mitogens," Nature, 248, 698-701 (1974)].
Human mononuclear cells (PBL) are separated from heparinized whole blood by density gradient centrifugation in Ficoll-Paque (Pharmacia). After washing, 5 x 10^4 cells/well are cultured in microtiter plates with minimal essential media supplemented with 1% human serum, gentamicin, sodium bicarbonate, 2-mercaptoethanol, glutamine, non-essential amino acids, and sodium pyruvate. The mitogen concanavalin A (Sigma) is used at a concentration of 2 µg/ml. Test materials are tested at concentrations between 10^-4 and 10^-10 M, by addition to the culture at time 0. Cultures are set up in quadruplicate and incubated at 37°C in a humidified atmosphere with 5% CO2 for 48 hours. A pulse of 1.0 µCi/well of ^3H-thymidine is added for the last 4 hours. Cells are collected on glass fiber filters with an automatic harvester and radioactivity is measured by standard scintillation procedures. The 50% inhibitory concentration ("IC50") for mitogenic stimulation is determined graphically. The compounds of the present invention show immunosuppressive activity when tested by this method.
The % suppression represents test well counts minus background (wells with no concanavalin A) divided by control well counts (wells with no compound) minus background times 100.

Series [4] relates to Arachidonic Acid-Induced Ear Edema (AAEE). The experiment in a line: Arachidonic Acid-Induced Ear Edema (AAEE) in the mouse, anti-inflammatory activity. The conditions noted are these: 1 h, ear plug weight one hour after arachidonic acid challenge. Type of series: in vivo, Female Charles River ICR mice. As to the method:
This procedure is a modification of a procedure described by Young et al., J. Invest. Derm., 82:367-371 (1984).
Female Charles River ICR mice 23-27 grams are administered 0.2 ml of test material. The mice are later challenged with 20 µl of arachidonic acid applied topically to the ear. One hour after challenge, the weight of an 8 mm disc is determined. The mean increase in ear plug weight is calculated. Materials with anti-inflammatory activity inhibit the increase in ear plug weight.

The subject of series [5] is mice. The experiment in a line: Toxicology, 2 weeks dosing in mice. The conditions noted are these: 3 to 25 mg/kg/day. Type of series: in vivo.

As a reminder, the IC50 is the concentration that inhibits the measured activity by half. The low end stands for greater potency in that assay, the high end for weaker potency in that assay. In general, ED50 refers to the dose that gives a 50% effect, or the effect in half of the subjects. `O=c1c2cccnc2c(-c2cccc(Cl)c2)nn1Cc1ccncc1` [Compound II, 6-(4-pyridylmethyl)-8-(3-chlorophenyl)pyrido[2,3-d]pyridazin-5-one] showed an IC50 in series [1] of 1 nM. In series [2], the ED50 worked out at 3 mg/kg. In series [3], the inhibition at 0.1 µM was determined as 74%, the inhibition at 1 µM stood at 83%, the inhibition at 10 µM worked out at 87% and the inhibition at 100 µM was determined as 100%. In series [4], this molecule gave an ED50 of 0.009 mg/kg. For the same molecule, the “CONCLUSION (mortality)” value in series [5] is “no mortality occurred at any of the dose levels tested”.

`O=c1c2cccnc2c(-c2cccc([N+](=O)[O-])c2)nn1Cc1ccncc1` [Compound I, 6-(4-pyridylmethyl)-8-(3-nitrophenyl)pyrido[2,3-d]pyridazin-5-one] came in with an IC50 in series [1] of 0.23 nM. The ED50 in series [2] turned out to be 1 mg/kg. In series [3], the inhibition at 0.1 µM came to 83%, the inhibition at 1 µM was found to be 80%, the inhibition at 10 µM turned out to be 85% and the inhibition at 100 µM was 100%. Besides, it took a dose of 0.003 mg/kg to reach the 50% effect level in series [4] (ED50). For the same molecule, the “CONCLUSION (mortality)” value in series [5] is reported as “no mortality occurred at any of the dose levels tested”.
